Measurements taken from patent publication US12116421B2, “Peptide-based Dopa containing adhesive gels” (KING ABDULLAH UNIVERSITY OF SCIENCE AND TECHNOLOGY, priority 2020, dated 2024).
Where a SMILES comes first, the peptide text is derived from it. [ ]: non-standard residue; d: D form. Dopa = N[C@@H](Cc1ccc(O)c(O)c1)C(=O)O; Cha = N[C@@H](CC1CCCCC1)C(=O)O

Test system: Acropora hemprichii fragments
Experiment: Adhesion of bigger coral fragments with IIZKDo glue to tile and 3D printed coral
Type: in vivo
Description: The donor corals Acropora spp. shown in FIG. 36 were collected from the Red Sea.
In one embodiment, IIZKDo was used for the adhesion of bigger and heavier coral fragments to the 3D printed coral, which would be the situation in coral reef restoration. In gluing larger coral fragments, two different type of Acropora hemprichii were glued: some big fragments with an irregular base, and some smaller pieces with smooth base.
In one embodiment, the big fragments with irregular base and the smaller pieces with smooth base were attached to a tile. The cut small pieces of coral were attached to a special sheet for macrofragmentation so that these fragments further grew on the surface of the spreadsheet, in order to obtain fragments with a base smooth enough to stick them on the tile. After 15 days, the big fragments were still fully attached to the tile, whereas the small, flat fragments were all detached.
After verifying the best performing glue among the three DoIIZK, IIZDoK, IIZKDo, IIZKDo was selected to glue some coral fragments onto 3D printed PLA corals used for coral reef restoration project. Using a diagonal plier, the tip of each branch-like part (ca. 1.5-2.5 cm in length) of a donor Acropora hemprichii coral was gently cut to minimize damage to the coral itself. FIG. 36 illustrates the parts being cut from the donor coral. […] The initial donor coral was moved from a large shallow aquarium (230×148×140 cm) supplied with running seawater to a relatively shallow aquarium also outfitted with running seawater. While preparing the glue, the cut fragments were kept in a small shallow aquarium (72×54×29 cm) filled with sea water to not harm them until use. In the meantime, the glue was prepared by mixing IIZKDo 40 mg/mL in water and the mixture was poured on a glass slide and allowed to rest for about 5 minutes to equilibrate, as shown in FIG. 42. The cut coral fragment was removed from the aquarium, and cleaned, while moisture was allowed to absorb from the cut section with sterilized filter paper. The ceramic tile was cleaned twice with water, and then sea water to mimic the adhesion of the glue to a wet, salty surface.
A few drops of IIZKDo was applied at the surface of the cut section of the coral fragment, and the fragment was immediately glued at the surface of the tile, as shown in FIG. 43. As a control, some smaller fragments with smooth surface Acropora hemprichii, were glued using the same peptide-based glue.
The tile with attached coral fragments was placed in the original shallow aquarium (230×148×140 cm) to keep the coral in its natural environment as shown in FIG. 44 and checked after 3 days. Only the big fragments were still sticking on the tile. Therefore, only big fragments were then glued to the 3D printed poly-lactic acid (PLA) printed coral structure primed with MakerBot, which is a 3D printer based on fused deposition modeling method and grew in harsher conditions, such as in the presence of algae etc.

[1] = Big fragments with irregular base, n = 5, tile
[2] = Flat fragments with smooth base, n = 3, tile

CC[C@H](C)[C@H](NC(C)=O)C(=O)N[C@H](C(=O)N[C@@H](CC1CCCCC1)C(=O)N[C@@H](CCCCN)C(=O)N[C@@H](Cc1ccc(O)c(O)c1)C(N)=O)[C@@H](C)CC [IIZKDo, Ac-Ile-Ile-Cha-Lys-Dopa-NH2] (Ac-II[Cha]K[Dopa]-NH2)
Survival after 15 days in the aquarium [1]: 5
Survival after attachment [1]: 5
Survival after 15 days in the aquarium [2]: 0
Survival after attachment [2]: 3
time coral fragments kept glued to a 3D printed substrate (seawater): several months
